Reference: patent US20230287048A1, “COMPOSITION AND KIT FOR REMOVING LIPOPOLYSACCHARIDE” (HLB SCIENCE INC., priority 2020, published 2023)
Where a SMILES comes first, the peptide text is derived from it. Where no end group is shown, it is not given here. [ ]: non-standard residue; d: D form.

What was measured:
[1] = LPS removal rates of reagents prepared with various peptides; details: for Removal Rate: peptide conjugated to CNBr-activated agarose
Description: To confirm an LPS removal rate by preparing a reagent for removing LPS using peptides other than FP12-NH2, LPS removal rates were compared using the peptides listed in Table 11.
Reagents for removing LPS were prepared in one dose by the method of Example 2-2 for each peptide.
More specifically, the reagent for removing LPS was aliquoted by Lot at 2 mL into 5 mL tubes. After centrifugation, the supernatant was removed with a syringe, 2 mL of PBS was added and mixed up and down and centrifuged. […] The mixture was stirred for 2 hours at room temperature. After centrifugation, the supernatant was transferred to a new tube.

[2] = Binding affinity (Kd) between peptide and LPS by isothermal titration calorimeter (ITC); details: for Kd: 0.2 mM peptide in cell, 2 mM LPS in syringe, PBS, read-out: Kd (calculated by ITC)
Description: FP1 is denoted as wild type (WT), and peptides having point mutations for various parts in WT were prepared (FP3, FP5, FP6, and FP9). To increase the interaction with LPS in the residue sequence of FP3, peptides were designed based on an FP3 and LPS-binding model (FP12-NH2 and FP13-NH2), and non-natural amino acid and amino acid isomers (allomeric D-type amino acids) were additionally introduced, thereby designing peptides (allD FP12-NH2, allD FP13-NH2, allD FP-13-9a, allD FP-13-9w, allD FP-13-9k, and allD FP13-NH2 (AcOH)). In addition, an N-terminal PEGylated peptide (PEG-allD FP13-NH2(AcOH)) was additionally designed and synthesized by Anygen Co. Ltd., and then supplied. Using each of the provided peptides, lipopolysaccharide (LPS), and an isothermal titration calorimeter (ITC) for measuring binding affinity (Kd), binding affinity with LPS was confirmed.
Specifically, a method of analyzing binding affinity (Kd) between a peptide and LPS is as follows.
The binding affinity was measured using Malvern MicroCal PEAQ-ITC cell equipment, and to confirm the interaction with LPS, pre-treatment was performed as follows. The volume and shape of a cell sample were 300 μL, coin-shaped, and fixed-in-place; and the syringe rotation rate was 1,200 rpm; and temperatures were 30° C., 35° C., and 25° C.
Before the test, LPS and the peptide were diluted with PBS in advance, thereby obtaining 2 mM LPS and a 0.2 mM peptide. 300 μL of the peptide was put into cells in an ITC device, which had been washed, and 40 μL of LPS was contained in a syringe. Measurement conditions for ITC (temperature, the number of injections) were set, the syringe was inserted into the cell, and the ITC measurement began. When the measurement was completed, the Kd values of LPS and the peptide were calculated through analysis.

| Compound | Removal Rate ([1]; feeding LPS 100,000 EU/ml) [%] | LPS binding affinity compared with FP1 (wild type, WT) [2] | Kd [2] [µM] | Removal Rate ([1]; feeding LPS 10,000 EU/ml) [%] | LPS removal rate, comparison of all polypeptides ([1]; peptides of Table 11 conjugated to CNBr-activated agarose) |
| --- | --- | --- | --- | --- | --- |
| CC(C)C[C@@H](NC(=O)[C@H](N)CCCNC(=N)N)C(=O)N[C@H](CCCNC(=N)N)C(=O)N[C@@H](C(=O)N[C@H](CCCCN)C(=O)N[C@H](CC(C)C)C(=O)N[C@H](CCCNC(=N)N)C(=O)N[C@H](CCCNC(=N)N)C(=O)N[C@H](Cc1ccc(O)cc1)C(=O)N[C@H](CC(C)C)C(=O)N[C@H](CCCNC(=N)N)C(N)=O)C(C)C [allD FP12-NH2, RLRVKLRRYLR-NH2] (H-[dR][dL][dR][dV][dK][dL][dR][dR][dY][dL][dR]-NH2; N-terminus assumed) | 58.6 | the same as or higher than FP1 | 26.6 |  |  |
| CC(C)C[C@@H](NC(=O)[C@H](N)CCCCN)C(=O)N[C@H](CCCNC(=N)N)C(=O)N[C@@H](C(=O)N[C@H](CCCCN)C(=O)N[C@H](CC(C)C)C(=O)N[C@H](CCCNC(=N)N)C(=O)N[C@H](CCCNC(=N)N)C(=O)N[C@H](Cc1ccc(O)cc1)C(=O)N[C@H](CC(C)C)C(=O)N[C@H](CCCNC(=N)N)C(N)=O)C(C)C [allD FP13-NH2, KLRVKLRRYLR-NH2] (H-[dK][dL][dR][dV][dK][dL][dR][dR][dY][dL][dR]-NH2; N-terminus assumed) | 57.7 | the same as or higher than FP1 | 4.78 |  |  |
| CC(C)C[C@@H](NC(=O)[C@H](N)CCCCN)C(=O)N[C@H](CCCNC(=N)N)C(=O)N[C@@H](C(=O)N[C@H](CCCCN)C(=O)N[C@H](CC(C)C)C(=O)N[C@H](CCCNC(=N)N)C(=O)N[C@H](CCCNC(=N)N)C(=O)N[C@H](CCCCN)C(=O)N[C@H](CC(C)C)C(=O)N[C@H](CCCNC(=N)N)C(N)=O)C(C)C [allD-FP-13-9k-NH2, Klrvklrrklr-NH2] (H-[dK][dL][dR][dV][dK][dL][dR][dR][dK][dL][dR]-NH2; N-terminus assumed) |  | the same as or higher than FP1 | 1.99 |  |  |
| CC(C)C[C@@H](NC(=O)[C@H](N)CCCCN)C(=O)N[C@H](CCCNC(=N)N)C(=O)N[C@@H](C(=O)N[C@H](CCCCN)C(=O)N[C@H](CC(C)C)C(=O)N[C@H](CCCNC(=N)N)C(=O)N[C@H](CCCNC(=N)N)C(=O)N[C@H](Cc1c[nH]c2ccccc12)C(=O)N[C@H](CC(C)C)C(=O)N[C@H](CCCNC(=N)N)C(N)=O)C(C)C [allD-FP-13-9w-NH2, Klrvklrrwlr-NH2] (H-[dK][dL][dR][dV][dK][dL][dR][dR][dW][dL][dR]-NH2; N-terminus assumed) |  | the same as or higher than FP1 | 17.4 |  |  |
| CC(C)C[C@@H](NC(=O)[C@H](N)CCCCN)C(=O)N[C@H](CCCNC(=N)N)C(=O)N[C@@H](C(=O)N[C@H](CCCCN)C(=O)N[C@H](CC(C)C)C(=O)N[C@H](CCCNC(=N)N)C(=O)N[C@H](CCCNC(=N)N)C(=O)N[C@H](Cc1ccc(O)cc1)C(=O)N[C@H](CC(C)C)C(=O)N[C@H](CCCNC(=N)N)C(N)=O)C(C)C [allD-FP-13-NH2 (AcOH), KLRVKLRRYLR-NH2] (H-[dK][dL][dR][dV][dK][dL][dR][dR][dY][dL][dR]-NH2; N-terminus assumed) |  | the same as or higher than FP1 | 19.5 |  |  |
| KLGVEAKRYLD [FP1(WT), KLGVEAKRYLD, reference compound] |  |  | 238 |  |  |
| KLGVEAKRYLR [FP3, KLGVEAKRYLR] |  | the same as or higher than FP1 | 332 |  |  |
| KLGVEALRYLD [FP9, KLGVEALRYLD] |  | the same as or higher than FP1 | 326 |  |  |
| KLRVKLRRYLR-NH2 [FP13-NH2, KLRVKLRRYLR-NH2] |  | the same as or higher than FP1 | 118 | 94.8 |  |
| LRLGVEAKRYLR [FP5, LRLGVEAKRYLR] |  | the same as or higher than FP1 | 854 |  |  |
| LRLGVELKRYLR [FP6, LRLGVELKRYLR] |  | the same as or higher than FP1 | 11.1 |  |  |
| RLRVKLRRYLR-NH2 [FP12-NH2, RLRVKLRRYLR-NH2] | 79.4 | the same as or higher than FP1 | 0.242 | 99.9 | the highest removal rate |
